Reference: publication PMC4450297, “Screening Active Compounds from Garcinia Species Native to China Reveals Novel Compounds Targeting the STAT/JAK Signaling Pathway” (BioMed Research International, 2015)

System: HT-1197
Experiment: Cell panel screen (CellTiter-Glo)
Assay type: cell-based, human
Conditions: HT-1197 (Urinary bladder), 20 micromolar, 72 hrs
Method: (§1) All cells were obtained from the cell bank of the American Type Culture Collection (ATCC) and cultured in the supplier's recommended media supplemented with 10% FBS. The cell panel screen was measured using the CellTiter-Glo assay (Promega, Madison, WI) following a standard protocol. Briefly, cancer cells were seeded in 96-well plates and cultured overnight at 37°C with or without 5% CO2 in an incubator. Each compound was dissolved with limited DMSO and diluted to a certain concentration with culture medium and then added to the corresponding well of the cell plate. The final concentration of compound was 20 μM. The control cells (without treatment) received the same amount of DMSO and were incubated under the same conditions. After 72 h cultivation, 100 μL of the CellTiter-Glo reagent was added directly to each well for 10-minute incubation. The plate was then read on a FlexStation 3 microplate luminometer (Molecular Devices, USA) to monitor the luminescence signal generated by the luciferase-catalyzed reaction of luciferin and ATP. The percent of growth inhibition was calculated using the following formula: (untreated cells − treated cells)/(untreated cells − background without cells) ∗ 100.

| Structure (SMILES) | Percent Inhibition [%] |
| --- | --- |
| CCOC1C2C(=O)c3c(O)c4c(c(CC=C(C)C)c3O[C@@]23[C@H]2C[C@@H]1C(=O)[C@]3(C/C=C(/C)C(=O)O)OC2(C)C)OC(C)(CCC=C(C)C)C=C4 (stereo partly drawn) [GB19] | 99 |

System: J82
Experiment: Cell panel screen (CellTiter-Glo)
Assay type: cell-based, human
Conditions: J82 (Urinary bladder), 20 micromolar, 72 hrs
Method: as §1

| Structure (SMILES) | Percent Inhibition [%] |
| --- | --- |
| CCOC1C2C(=O)c3c(O)c4c(c(CC=C(C)C)c3O[C@@]23[C@H]2C[C@@H]1C(=O)[C@]3(C/C=C(/C)C(=O)O)OC2(C)C)OC(C)(CCC=C(C)C)C=C4 (stereo partly drawn) [GB19] | 99 |

System: M059J
Experiment: Cell panel screen (CellTiter-Glo)
Assay type: cell-based, human
Conditions: M059J (Brain), 20 micromolar, 72 hrs
Method: as §1

| Structure (SMILES) | Percent Inhibition [%] |
| --- | --- |
| CCOC1C2C(=O)c3c(O)c4c(c(CC=C(C)C)c3O[C@@]23[C@H]2C[C@@H]1C(=O)[C@]3(C/C=C(/C)C(=O)O)OC2(C)C)OC(C)(CCC=C(C)C)C=C4 (stereo partly drawn) [GB19] | 99 |

System: MSTO-211-H
Experiment: Cell panel screen (CellTiter-Glo)
Assay type: cell-based, human
Conditions: MSTO-211-H (Lung), 20 micromolar, 72 hrs
Method: as §1

| Structure (SMILES) | Percent Inhibition [%] |
| --- | --- |
| CCOC1C2C(=O)c3c(O)c4c(c(CC=C(C)C)c3O[C@@]23[C@H]2C[C@@H]1C(=O)[C@]3(C/C=C(/C)C(=O)O)OC2(C)C)OC(C)(CCC=C(C)C)C=C4 (stereo partly drawn) [GB19] | 99 |

System: NCI-H1623
Experiment: Cell panel screen (CellTiter-Glo)
Assay type: cell-based, human
Conditions: NCI-H1623 (Lung), 20 micromolar, 72 hrs
Method: as §1

| Structure (SMILES) | Percent Inhibition [%] |
| --- | --- |
| CCOC1C2C(=O)c3c(O)c4c(c(CC=C(C)C)c3O[C@@]23[C@H]2C[C@@H]1C(=O)[C@]3(C/C=C(/C)C(=O)O)OC2(C)C)OC(C)(CCC=C(C)C)C=C4 (stereo partly drawn) [GB19] | 99 |

System: NCI-H1694
Experiment: Cell panel screen (CellTiter-Glo)
Assay type: cell-based, human
Conditions: NCI-H1694 (Lung), 20 micromolar, 72 hrs
Method: as §1

| Structure (SMILES) | Percent Inhibition [%] |
| --- | --- |
| CCOC1C2C(=O)c3c(O)c4c(c(CC=C(C)C)c3O[C@@]23[C@H]2C[C@@H]1C(=O)[C@]3(C/C=C(/C)C(=O)O)OC2(C)C)OC(C)(CCC=C(C)C)C=C4 (stereo partly drawn) [GB19] | 99 |

System: NCI-H1770
Experiment: Cell panel screen (CellTiter-Glo)
Assay type: cell-based, human
Conditions: NCI-H1770 (Lung), 20 micromolar, 72 hrs
Method: as §1

| Structure (SMILES) | Percent Inhibition [%] |
| --- | --- |
| CCOC1C2C(=O)c3c(O)c4c(c(CC=C(C)C)c3O[C@@]23[C@H]2C[C@@H]1C(=O)[C@]3(C/C=C(/C)C(=O)O)OC2(C)C)OC(C)(CCC=C(C)C)C=C4 (stereo partly drawn) [GB19] | 99 |

System: NCI-H2347
Experiment: Cell panel screen (CellTiter-Glo)
Assay type: cell-based, human
Conditions: NCI-H2347 (Lung), 20 micromolar, 72 hrs
Method: as §1

| Structure (SMILES) | Percent Inhibition [%] |
| --- | --- |
| CCOC1C2C(=O)c3c(O)c4c(c(CC=C(C)C)c3O[C@@]23[C@H]2C[C@@H]1C(=O)[C@]3(C/C=C(/C)C(=O)O)OC2(C)C)OC(C)(CCC=C(C)C)C=C4 (stereo partly drawn) [GB19] | 98 |

System: NCI-H2405
Experiment: Cell panel screen (CellTiter-Glo)
Assay type: cell-based, human
Conditions: NCI-H2405 (Lung), 20 micromolar, 72 hrs
Method: as §1

| Structure (SMILES) | Percent Inhibition [%] |
| --- | --- |
| CCOC1C2C(=O)c3c(O)c4c(c(CC=C(C)C)c3O[C@@]23[C@H]2C[C@@H]1C(=O)[C@]3(C/C=C(/C)C(=O)O)OC2(C)C)OC(C)(CCC=C(C)C)C=C4 (stereo partly drawn) [GB19] | 99 |

System: NCI-H28
Experiment: Cell panel screen (CellTiter-Glo)
Assay type: cell-based, human
Conditions: NCI-H28 (Lung), 20 micromolar, 72 hrs
Method: as §1

| Structure (SMILES) | Percent Inhibition [%] |
| --- | --- |
| CCOC1C2C(=O)c3c(O)c4c(c(CC=C(C)C)c3O[C@@]23[C@H]2C[C@@H]1C(=O)[C@]3(C/C=C(/C)C(=O)O)OC2(C)C)OC(C)(CCC=C(C)C)C=C4 (stereo partly drawn) [GB19] | 99 |

System: NCI-H524
Experiment: Cell panel screen (CellTiter-Glo)
Assay type: cell-based, human
Conditions: NCI-H524 (Lung), 20 micromolar, 72 hrs
Method: as §1

| Structure (SMILES) | Percent Inhibition [%] |
| --- | --- |
| CCOC1C2C(=O)c3c(O)c4c(c(CC=C(C)C)c3O[C@@]23[C@H]2C[C@@H]1C(=O)[C@]3(C/C=C(/C)C(=O)O)OC2(C)C)OC(C)(CCC=C(C)C)C=C4 (stereo partly drawn) [GB19] | 99 |

System: Panc 03.27
Experiment: Cell panel screen (CellTiter-Glo)
Assay type: cell-based, human
Conditions: Panc 03.27 (Pancreas), 20 micromolar, 72 hrs
Method: as §1

| Structure (SMILES) | Percent Inhibition [%] |
| --- | --- |
| CCOC1C2C(=O)c3c(O)c4c(c(CC=C(C)C)c3O[C@@]23[C@H]2C[C@@H]1C(=O)[C@]3(C/C=C(/C)C(=O)O)OC2(C)C)OC(C)(CCC=C(C)C)C=C4 (stereo partly drawn) [GB19] | 99 |

System: RL95
Experiment: Cell panel screen (CellTiter-Glo)
Assay type: cell-based, human
Conditions: RL95 (Uterus), 20 micromolar, 72 hrs
Method: as §1

| Structure (SMILES) | Percent Inhibition [%] |
| --- | --- |
| CCOC1C2C(=O)c3c(O)c4c(c(CC=C(C)C)c3O[C@@]23[C@H]2C[C@@H]1C(=O)[C@]3(C/C=C(/C)C(=O)O)OC2(C)C)OC(C)(CCC=C(C)C)C=C4 (stereo partly drawn) [GB19] | 99 |

System: SW13
Experiment: Cell panel screen (CellTiter-Glo)
Assay type: cell-based, human
Conditions: SW13 (Adrenal gland), 20 micromolar, 72 hrs
Method: as §1

| Structure (SMILES) | Percent Inhibition [%] |
| --- | --- |
| CCOC1C2C(=O)c3c(O)c4c(c(CC=C(C)C)c3O[C@@]23[C@H]2C[C@@H]1C(=O)[C@]3(C/C=C(/C)C(=O)O)OC2(C)C)OC(C)(CCC=C(C)C)C=C4 (stereo partly drawn) [GB19] | 99 |

System: T47D
Experiment: Cell panel screen (CellTiter-Glo)
Assay type: cell-based, human
Conditions: T47D (Breast), 20 micromolar, 72 hrs
Method: as §1

| Structure (SMILES) | Percent Inhibition [%] |
| --- | --- |
| CCOC1C2C(=O)c3c(O)c4c(c(CC=C(C)C)c3O[C@@]23[C@H]2C[C@@H]1C(=O)[C@]3(C/C=C(/C)C(=O)O)OC2(C)C)OC(C)(CCC=C(C)C)C=C4 (stereo partly drawn) [GB19] | 99 |

System: T98G
Experiment: Cell panel screen (CellTiter-Glo)
Assay type: cell-based, human
Conditions: T98G (Brain), 20 micromolar, 72 hrs
Method: as §1

| Structure (SMILES) | Percent Inhibition [%] |
| --- | --- |
| CCOC1C2C(=O)c3c(O)c4c(c(CC=C(C)C)c3O[C@@]23[C@H]2C[C@@H]1C(=O)[C@]3(C/C=C(/C)C(=O)O)OC2(C)C)OC(C)(CCC=C(C)C)C=C4 (stereo partly drawn) [GB19] | 99 |

System: TCCSUP
Experiment: Cell panel screen (CellTiter-Glo)
Assay type: cell-based, human
Conditions: TCCSUP (Urinary bladder), 20 micromolar, 72 hrs
Method: as §1

| Structure (SMILES) | Percent Inhibition [%] |
| --- | --- |
| CCOC1C2C(=O)c3c(O)c4c(c(CC=C(C)C)c3O[C@@]23[C@H]2C[C@@H]1C(=O)[C@]3(C/C=C(/C)C(=O)O)OC2(C)C)OC(C)(CCC=C(C)C)C=C4 (stereo partly drawn) [GB19] | 99 |

System: ZR-75-30
Experiment: Cell panel screen (CellTiter-Glo)
Assay type: cell-based, human
Conditions: ZR-75-30 (Breast), 20 micromolar, 72 hrs
Method: as §1

| Structure (SMILES) | Percent Inhibition [%] |
| --- | --- |
| CCOC1C2C(=O)c3c(O)c4c(c(CC=C(C)C)c3O[C@@]23[C@H]2C[C@@H]1C(=O)[C@]3(C/C=C(/C)C(=O)O)OC2(C)C)OC(C)(CCC=C(C)C)C=C4 (stereo partly drawn) [GB19] | 99 |
